Tests used:
[1] = tested on: P. falciparum CQ-resistant strain W2; assay: In vitro antiplasmodial activity, SYBR Green I fluorescence-based method, strain W2; format: cell-based; conditions: for IC50: Plasmodium falciparum, chloroquine-resistant strain W2, 48 h incubation, read-out: P. falciparum strains IC50 values, W2; for Selectivity index HepG2/W2: SI = CC50 HepG2 / IC50 P. falciparum W2
Experimental: (§1) The in vitro antiplasmodial activities were tested over concentrations ranging from […] against culture-adapted P. falciparum reference strains 3D7 and W2. […] The parasites were cultivated in RPMI medium (Sigma-Aldrich, Lyon, France) supplemented with 0.5% Albumax I (Life Technologies Corporation, Paisley, UK), hypoxanthine (Sigma-Aldrich), and gentamicin (Sigma-Aldrich) with human erythrocytes and were incubated at 37 °C in a candle jar, as described previously[43] .The P. falciparum drug susceptibility test was carried out in 96-well flat-bottom sterile plates in a final volume of 250 µl. After 48 h incubation period with the drugs, quantities of DNA in treated and control cultures of parasites in human erythrocytes were quantified using the SYBR Green I (Sigma-Aldrich) fluorescence-based method[44]^,[45]. Briefly, after incubation, plates were frozen at −20 °C until use. Plates were then thawed for 2 h at room temperature, and 100 µl of each homogenised culture was transferred to a well of a 96-well flat-bottom sterile black plate (Nunc, Inc., Rochester, NY) that contained 100 µl of the SYBR Green I lysis buffer (2xSYBR Green, 20 mM Tris base pH 7.5, 5 mM EDTA, 0.008% w/v saponin, 0.08% w/v Triton X-100). […] Plates were incubated for 1 h at room temperature and then read on a fluorescence plate reader (Tecan, Grödig, Austria) using excitation and emission wavelengths of 485 and 535 nm, respectively. IC50 values were calculated by non-linear regression analysis of data from dose-response curves, using TableCurve 2D version 5.0 software (Systat Software, San Jose, CA). IC50 values are reported as means calculated from three independent experiments.

[2] = tested on: P. falciparum CQ-sensitive strain 3D7; assay: In vitro antiplasmodial activity, SYBR Green I fluorescence-based method, strain 3D7; format: cell-based; conditions: for IC50: Plasmodium falciparum, chloroquine-sensitive strain 3D7, 48 h incubation, read-out: P. falciparum strains IC50 values, 3D7; for Selectivity index HepG2/3D7: SI = CC50 HepG2 / IC50 P. falciparum 3D7
Experimental: as §1

[3] = tested on: L. donovani (MHOM/IN/00/DEVI) promastigotes; assay: In vitro antileishmanial activity, MTT assay on promastigotes; format: cell-based; conditions: Leishmania donovani, 72 h incubation, ≥10 = no activity noted at the highest concentration tested
Experimental: L. donovani (MHOM/IN/00/DEVI) used in this study was provided by the CNR Leishmania (Montpellier, France). The effects of the tested compounds on the growth of L. donovani (MHOM/IN/00/DEVI) promastigotes were assessed by MTT assay. Briefly, promastigotes in log-phase in Schneider’s medium supplemented with 20% foetal calf serum (FCS), 2 mM L-glutamine and antibiotics (100 U/ml penicillin and 100 µg/ml streptomycin), were incubated at an average density of 10^6 parasites/ml in sterile 96-well plates with various concentrations of compounds dissolved in DMSO (final concentration less than 0.5% v/v), in duplicate. Appropriate controls treated with DMSO and amphotericin B (reference drug purchased from Sigma-Aldrich) were added to each set of experiments. After 72 h incubation period at 27 °C, parasite metabolic activity was determined. Each well was microscopically examined for precipitate formation. To each well was added 20 µl of 5 mg/ml MTT [3–(4,5-dimethylthiazol-2-yl)-2,5-diphenyltetrazolium bromide)] solution followed by 4 h incubation time. The enzyme reaction was stopped by addition of 100 µl of 50% isopropanol/10% sodium dodecyl sulfate. Plates were vigorously shaken (300 rpm) for 10 min, and the absorbance was measured at 570 nm in a BIO-TEK ELx808 Absorbance Microplate Reader. […] IC50 of the parasite’s growth (half maximal inhibitory concentration or IC50 values) were then calculated from the obtained experimental results using a previously described regression programme.

[4] = tested on: T. brucei brucei AnTat 1.9; assay: In vitro antitrypanosomal activity, Alamar Blue assay; format: cell-based; conditions: for Selectivity index HepG2/Tryp.: SI = CC50 HepG2 / IC50 Trypanosoma brucei brucei; for IC50: Trypanosoma brucei, slender bloodstream trypomastigotes, AnTat 1.9 strain, read-out: Trypanosoma brucei brucei IC50 values, Trypanos Antat 1.9
Experimental: The effects of the tested compounds on the growth of T. brucei brucei were assessed using an Alamar Blue® assay described by Räz et al.[49] T. brucei brucei AnTat 1.9 (IMTA, Antwerpen, Belgium) was cultured in MEM with Earle’s salts, supplemented according to the protocol of Baltz et al.[50] with the following modifications: 0.5 mM mercaptoethanol (Sigma Aldrich), 1.5 mM L-cysteine (Sigma Aldrich), 0.05 mM bathocuproine sulphate (Sigma Aldrich), and 20% heat-inactivated horse serum (Gibco, France) at 37 °C and 5% CO2. Samples were incubated at an average density of 2000 parasites/well in sterile 96-wells plates (Fisher, France) with various concentrations of compounds dissolved in 0.9% NaCl. All doses were tested in duplicate. Appropriate controls treated with solvents 0.9% NaCl or DMSO or with suramin, pentamidine, eflornithine, and fexinidazole (reference drugs purchased from Sigma Aldrich and Fluorochem, UK) were added to each set of experiments. After 69 h incubation period at 37 °C, 10 µl of the viability marker Alamar Blue (Fisher) was added to each well, and the plates were incubated for 5 h. The plates were read in a PerkinElmer ENSPIRE (Germany) microplate reader using an excitation wavelength of 530 nm and an emission wavelength of 590 nm. […] IC50 values were calculated using a nonlinear regression analysis of dose-response curves performed using GraphPad Prism software (La Jolla, CA). IC50 values were calculated from three independent experiments.

[5] = Cytotoxicity evaluation, MTT; format: cell-based, human; conditions: human
Experimental: These cells are a commonly used human hepatocarcinoma-derived cell line that has characteristics similar to those of primary hepatocytes. These cells express many hepatocyte-specific metabolic enzymes, thus enabling the cytotoxicity of tested product metabolites to be evaluated. […] Duplicate assays were performed for each sample. Each well was microscopically examined for precipitate formation before the medium was aspirated from the wells. After aspiration, 100 µl of MTT solution (0.5 mg/ml in medium without FCS) were then added to each well. […] The MTT solution was removed, and DMSO (100 µl) was added to dissolve the resulting blue formazan crystals. Plates were shaken vigorously (300 rpm) for 5 min. The absorbance was measured at 570 nm with 630 nm as reference wavelength in a BIO-TEK ELx808 Absorbance Microplate Reader. DMSO was used as blank and doxorubicin (Sigma Aldrich) as positive control. Cell viability was calculated as percentage of control (cells incubated without compound). The CC50 was determined from the dose-response curve using the TableCurve 2D version 5.0 software (Systat Software, San Jose, CA)

Structure (SMILES) | IC50 [1] [nM] | IC50 [2] [nM] | IC50 [3] [nM] | IC50 [4] [nM] | Selectivity index HepG2/W2 [1] | Selectivity index HepG2/3D7 [2] | Selectivity index HepG2/Tryp. [4] | CC50 at 72 h [5] [nM]
COc1ccc2c(-c3ccc(CNCCCN4CCN(C)CC4)cc3)cc(-c3ccc(CNCCCN4CCN(C)CC4)cc3)nc2c1 [Compound 1p, 7-Methoxy-2,4-bis{4-[(3–(4-methylpiperazin-1-yl)propyl)aminomethyl]phenyl}quinoline] | 2730 ± 760 | 4340 ± 500 | ≥ 10000 | 1010 ± 135 | 2.36 | 1.48 | 6.37 | 6440 ± 600
COc1ccc2c(-c3ccc(CNCCCN(C)C)cc3)cc(-c3ccc(CNCCCN(C)C)cc3)nc2c1 [Compound 1n, 7-Methoxy-2,4-bis{4-[(3-dimethylaminopropyl)aminomethyl]phenyl}quinoline] | 1690 ± 240 | 3180 ± 360 | ≥ 10000 | 1200 ± 296 | 0.28 | 0.15 | 0.40 | 480 ± 100
CN1CCN(CCCNCc2ccc(-c3cc4ccccc4c(-c4ccc(CNCCCN5CCN(C)CC5)cc4)n3)cc2)CC1 [Compound 2d, 1,3-Bis{4-[(3–(4-methylpiperazin-1-yl)propyl)aminomethyl]phenyl}isoquinoline] | 5460 ± 440 | 5770 ± 670 | ≥ 10000 | 1280 ± 122 | 2.72 | 2.57 | 11.60 | 14800 ± 1100
COc1ccc2c(-c3ccc(CNCCCCN4CCN(C)CC4)cc3)nc(-c3ccc(CNCCCCN4CCN(C)CC4)cc3)cc2c1 [Compound 2k, 6-Methoxy-1,3-bis{4-[(4–(4-methylpiperazin-1-yl)butyl)aminomethyl]phenyl}isoquinoline] | 5960 ± 540 | 8910 ± 870 | ≥ 10000 | 990 ± 122 | 1.09 | 0.73 | 6.54 | 6480 ± 600
COc1ccc2nc(-c3ccc(CNCCCN(C)C)cc3)cc(-c3ccc(CNCCCN(C)C)cc3)c2c1 [Compound 1j, 6-Methoxy-2,4-bis{4-[(3-dimethylaminopropyl)aminomethyl]phenyl}quinoline] | 4210 ± 310 | 2650 ± 180 | ≥ 10000 | 620 ± 70 | 0.59 | 0.94 | 4.03 | 2500 ± 200
COc1ccc2nc(-c3ccc(CNCCCCN4CCN(C)CC4)cc3)cc(-c3ccc(CNCCCCN4CCN(C)CC4)cc3)c2c1 [Compound 1k, 6-Methoxy-2,4-bis{4-[(4–(4-methylpiperazin-1-yl)butyl)aminomethyl]phenyl}quinoline] | 4100 ± 540 | 2590 ± 200 | ≥ 10000 | 980 ± 118 | 1.50 | 2.38 | 6.28 | 6160 ± 400
CN(C)CCCCNCc1ccc(-c2cc(-c3ccc(CNCCCCN(C)C)cc3)c3ccccc3n2)cc1 [Compound 1a, 2,4-Bis{4-[(4-dimethylaminobutyl)aminomethyl]phenyl}quinoline] | – | 4080 ± 488 | ≥ 10000 | 840 ± 33 | – | 1.45 | 7.03 | 5910 ± 1500

Stronger by IC50 [2], values ahead:

IC50 [1] [nM] | IC50 [2] [nM] | IC50 [3] [nM] | IC50 [4] [nM] | Structure (SMILES) | Selectivity index HepG2/W2 [1] | Selectivity index HepG2/3D7 [2] | Selectivity index HepG2/Tryp. [4] | CC50 at 72 h [5] [nM]
1340 ± 290 | 1810 ± 250 | ≥ 10000 | 590 ± 57 | COc1ccc2nc(-c3ccc(CNCCN4CCN(C)CC4)cc3)nc(-c3ccc(CNCCN4CCN(C)CC4)cc3)c2c1 [Compound 3l, 6-Methoxy-2,4-bis{4-[(2–(4-methylpiperazin-1-yl)ethyl)aminomethyl]phenyl}quinazoline] | 4.87 | 3.61 | 11.06 | 6530 ± 600
1280 ± 340 | 1810 ± 190 | ≥ 10000 | 810 ± 255 | COc1ccc2cc(-c3ccc(CNCCCN4CCN(C)CC4)cc3)nc(-c3ccc(CNCCCN4CCN(C)CC4)cc3)c2c1 [Compound 2h, 7-Methoxy-1,3-bis{4-[(3–(4-methylpiperazin-1-yl)propyl)aminomethyl]phenyl}isoquinoline] | 5.61 | 3.97 | 8.86 | 7180 ± 600
4510 ± 710 | 1800 ± 200 | ≥ 10000 | 1540 ± 164 | COc1ccc2nc(-c3ccc(CNCCCN4CCN(C)CC4)cc3)cc(-c3ccc(CNCCCN4CCN(C)CC4)cc3)c2c1 [Compound 1l, 6-Methoxy-2,4-bis{4-[(3–(4-methylpiperazin-1-yl)propyl)aminomethyl]phenyl}quinoline] | 0.23 | 0.57 | 0.66 | 1020 ± 100
6230 ± 800 | 1740 ± 360 | ≥ 10000 | 640 ± 163 | CN(C)CCCCNCc1ccc(-c2cc3ccccc3c(-c3ccc(CNCCCCN(C)C)cc3)n2)cc1 [Compound 2a, 1,3-Bis{4-[(4-dimethylaminobutyl)aminomethyl]phenyl}isoquinoline] | 1.33 | 4.78 | 12.98 | 8310 ± 1000
– | 690 ± 70 | ≥ 10000 | 1220 ± 121 | CN1CCN(CCCCNCc2ccc(-c3cc(-c4ccc(CNCCCCN5CCN(C)CC5)cc4)c4ccccc4n3)cc2)CC1 [Compound 1d, 2,4-Bis{4-[(4–(4-methylpiperazin-1-yl)butyl)aminomethyl]phenyl}quinoline] | – | 11.17 | 6.32 | 7710 ± 400
